From patent publication US4716238A, “Chromene derivatives useful as insecticides” (Alkaloida Vegyeszeti Gyar, priority 1983, dated 1987)
Like-named read-outs stand apart in the source and are kept apart here.

Assays:
[1] = test system: domestic fly; assay: Domestic fly test (larvae on treated nutrient medium); type: in vivo; conditions: Musca domestica
Protocol: domestic fly (Musca domestica)
The fly larvae are grown on a nutrient medium of the following composition: 2 ml of milk; 2 ml of water; 2 g of wheat bran; 0.1 ml of saturated alcoholic nipagin solution.
The nutrient medium is filled into cylindrical glass vials (30×100 mm) and 25 fly larvae are raised in each vial. The test compound is dissolved in milk; the end concentration (related to milk) amounts to 0.1% which corresponds to 0.05% (related to the total nutrient medium). The solution of the active ingredient is admixed with the nutrient medium whereupon […] of domestic fly larvae of the I. stage are placed into each vial and the vials are closed with a hard cotton-wool stopper. The nymphs emerging from the larvae are collected in each vial, counted and kept in a petri dish (diameter 25 mm) until flies hatch from the nymphs. The hatched flies are counted.

[2] = test system: cabbage butterfly; assay: Cabbage butterfly test (sprayed cabbage seedlings, II. stage larvae); type: in vivo; conditions: Pieris brassicae, 50 EC composition, concentration 0.1%; for mortality at 0.1 %: read-out: Killing rate of larvae
Protocol: cabbage butterfly (Pieris brassicae)
From the 50 EC of the test compound a dilution series is prepared with water and the host seedlings (cabbage) are sprayed with this composition until the spray runs down. The spray is allowed to dry whereupon 20 young larvae of the II. stage are placed on each treated plant and the seedlings are kept under so-called "long-day" illumination (18 hours of illumination and 6 hours of darkness). The nibbled plants are replaced by similarly sprayed plants if necessary. The killing rate of the insects, the growth rate of the larvae and the morphological deformations of the surviving nymphs and adults are registered.
In the 50 EC compositions P1 and test compound 1 are used in a concentration of 0.01%, and the other active ingredients in a concentration of 0.1%.

[3] = test system: Caenorhabditis elegans adult nematodes; assay: Nematocidal effect on Caenorhabditis elegans adult nematodes; type: in vivo; conditions: for Size of descendant population: control normal; for mortality at 200 µg/mL / mortality at 400 µg/mL: Caenorhabditis elegans, read-out: Lethality
Protocol: Caenorhabditis elegans 0.5 ml of the acetonous solution of the test compound is applied onto a NGM agar plate free from bacteria in a Petri dish. After the acetone was dried 25-30 young adults are placed on the plate. After 24 hours the surviving and killed […] are counted.

[4] = test system: cotton bug; assay: Cotton bug test (topical application on larvae of II. stage); type: in vivo, Dysdercus fasciatus
Protocol: cotton bug (Dysdercus fasciatus) A dilution series is prepared from the test compound with acetone, and 0.2 μl of each dilution is topically applied onto the back part of larvae of the II. stage of growth with the aid of a Hamiltion syringe. The active ingredient is absorbed through the cuticula. The animals are kept in a large glass and fed with cotton grains and water. After adult shedding the surviving insects are observed for eventual adultoid symptoms, the egg-reproduction and the development of the ovules is evaluated too. (Remark: in the cotton bug test 50 insects are used). In each Table the control value are disclosed too.

SMILES	survival at 0.1 % ([1]; read-out: Survival, adult)	survival at 0.1 % ([1]; read-out: Survival, nymph)	mortality at 0.1 % [2]	survival at 0.1 % ([2]; read-out: Survival, adult)	survival at 0.1 % ([2]; read-out: Survival, nymph)	Size of descendant population ([3]; 200 μg/ml)	Size of descendant population ([3]; 400 μg/ml)	mortality at 200 µg/mL ([3]; 24 h)	mortality at 400 µg/mL ([3]; 24 h)	further results
COc1c(OC(C)C)ccc2c1OC(C)(C)C=C2 [Compound 90, 7-isopropoxy-8-methoxy-2,2-dimethyl-2H-chromene]	0%	12%	64%	32%	36%	reduced	reduced	60%	73%	
CC(C)COc1ccc2c(c1)OC(C)(C)C=C2 [Compound 3]	28.2%	100%								
C#CCOc1cc(C)c2c(c1)OC(C)(C)C=C2 [Compound 30]	10.6%	50.9%	83%	17%	17%	some descendants	no descendants	20%	30%	Remark ([3]; 200 μg/ml): paralysis; Remark ([3]; 400 μg/ml): paralysis
Cc1cc(OC(C)C)cc2c1C=CC(C)(C)O2 [Compound 19]	27.6%	50.9%								
CCC(C)Oc1ccc2c(c1OC)OC(C)(C)C=C2 (centres unmarked) [Compound 89, 7-sec.butoxy-8-methoxy-2,2-dimethyl-2H-chromene]			100%			reduced	reduced	25%	85%	
CCOc1ccc2c(c1OC)OC(C)(C)C=C2 [Compound 87]	4.2%	5.4%	76%	24%	24%	reduced	no descendants	40%	100%	
COc1cc2c(cc1OCC(C)C)OC(C)(C)C=C2 [Compound 67]										LD50 [4]: 0.4 μg/insect
COc1cc2c(cc1OC)OC(C)(C)C=C2 [Compound P2, reference compound]						no descendants	no descendants			mortality at 200 µg/mL ([3]; 200 μg/ml, 24 hours): 100%; mortality at 400 µg/mL ([3]; 400 μg/ml, 24 hours): 100%; AJH effect [4]: 1 μg/insect; LD50 [4]: 0.6 μg/insect; Sterilizing effect [4]: 10 μg/insect
CC(C)=CCOc1cc2c(cc1OCC=C(C)C)OC(C)(C)C=C2 [Compound 60]										LD50 [4]: 0.6 μg/insect
CCC(C)Oc1cc(C)c2c(c1)OC(C)(C)C=C2 (centres unmarked) [Compound 20]	12.5%	25.4%	11%	14%	19%					
C=CCOc1cc2c(cc1OCC=C)OC(C)(C)C=C2 [Compound 58]						some descendants	no descendants	40%	90%	
COc1cc(OC(C)C)cc2c1C=CC(C)(C)O2 [Compound 108]			87%	9%	13%					
